Experimental data reported in patent US7977375B2, “Antibiotic and method of production thereof” (Helmholtz-Zentrum Für Infektionsforschung GmbH, priority 2004, dated 2011).
In brackets after ≈: the same amount, converted by molar mass.

Key:
E. faecium VRAR E315 [1] = assay: MIC / MBC in liquid culture; assay type: cell-based, Enterococcus faecium; settings: E. faecium VRAR E315; for MIC: Enterococcus faecium, VRARE315, read-out: MIC (minimal inhibitory concentration)
MRSA 3 = assay: MIC / MBC in liquid culture; assay type: cell-based, Staphylococcus aureus; settings: MRSA 3; for MIC: Staphylococcus aureus, read-out: MIC (minimal inhibitory concentration)
B. cepacia SCV 141 [2] = assay: MIC / MBC in liquid culture; assay type: cell-based, Burkholderia cepacia; settings: for MIC: Burkholderia cepacia, SCV141, read-out: MIC (minimal inhibitory concentration)
Excerpt: (§1) 7-O-malonyl macrolactin A was not effective against some of the gram-negative bacteria tested by the inventors.

B. cepacia WT139 = assay: MIC / MBC in liquid culture; assay type: cell-based, Burkholderia cepacia; settings: for MIC: Burkholderia cepacia, read-out: MIC (minimal inhibitory concentration)
Excerpt: as §1

E. faecalis VRAS E305 [3] = assay: MIC / MBC in liquid culture; assay type: cell-based, Enterococcus faecalis; settings: E. faecalis VRAS E305; for MIC: Enterococcus faecalis, VRASE305, read-out: MIC (minimal inhibitory concentration)
MRSA 2 = assay: MIC / MBC in liquid culture; assay type: cell-based, Staphylococcus aureus; settings: MRSA 2; for MIC: Staphylococcus aureus, read-out: MIC (minimal inhibitory concentration)
[4] = system: S. aureus # (non-methicillin-resistant reference strain); assay: MIC / MBC in liquid culture; assay type: cell-based, Staphylococcus aureus; settings: S. aureus #; for MIC: Staphylococcus aureus, read-out: MIC (minimal inhibitory concentration)
E. faecalis ATCC 29212 [5] = assay: MIC / MBC in liquid culture; assay type: cell-based, Enterococcus faecalis; settings: for MIC: Enterococcus faecalis, ATCC29212, E. faecalis ATCC 29212, read-out: MIC (minimal inhibitory concentration)
E. faecalis VRAS E305 [6] = assay: agar diffusion method, inhibition zone; assay type: cell-based, Enterococcus faecalis; settings: Enterococcus faecalis, VRASE305; E. faecalis VRAS E305; MH agar, 18 hours at 37° C.; per disk 10 μl crude extract, 50 μg macrolactin, 78 μg erythromycin, 30 μg vancomycin, 10 μg ampicillin
Method: (§2) The agar diffusion method employing Mueller-Hinton (MH) agar (Difco Laboratories) was used to determine effectiveness against bacteria and yeasts. Sterile paper disks (Schleicher & Schüell, Germany) were seeded with 10 μl crude extract or with a solution of purified macrolactin (final compound concentration on the disk 50 μg) and then placed on the surface of MH-agar plates that had been seeded beforehand with a suspension of overnight culture of the test microorganisms at a concentration of 10^5 cells/ml.

E. faecalis ATCC 29212 [7] = assay: agar diffusion method, inhibition zone; assay type: cell-based, Enterococcus faecalis; settings: Enterococcus faecalis, ATCC29212; E. faecalis ATCC 29212; MH agar, 18 hours at 37° C.; per disk 10 μl crude extract, 50 μg macrolactin, 78 μg erythromycin, 30 μg vancomycin, 10 μg ampicillin
Method: as §2

E. faecium VRAR E315 [8] = assay: agar diffusion method, inhibition zone; assay type: cell-based, Enterococcus faecium; settings: Enterococcus faecium, VRARE315; E. faecium VRAR E315; MH agar, 18 hours at 37° C.; per disk 10 μl crude extract, 50 μg macrolactin, 78 μg erythromycin, 30 μg vancomycin, 10 μg ampicillin
Method: as §2

B. cepacia SCV 141 [9] = assay: agar diffusion method, inhibition zone; assay type: cell-based, Burkholderia cepacia; settings: Burkholderia cepacia, SCV141, MH agar, 18 hours at 37° C., per disk 10 μl crude extract, 50 μg macrolactin, 78 μg erythromycin, 10 μg ampicillin
Method: as §2
The B. cepacia strain used, which is a clinical isolate from a cystic fibrosis patient, forms small colonies (SCV 141).

[10] = system: S. aureus # (own collection, methicillin-sensitive control strain); assay: agar diffusion method, inhibition zone; assay type: cell-based, Staphylococcus aureus; settings: Staphylococcus aureus; S. aureus # own collection; MH agar, 18 hours at 37° C.; per disk 10 μl crude extract, 50 μg macrolactin, 78 μg erythromycin, 30 μg vancomycin, 10 μg ampicillin
Method: as §2

S. aureus DSMZ 1104 = assay: agar diffusion method, inhibition zone; assay type: cell-based, Staphylococcus aureus; settings: Staphylococcus aureus, DSMZ1104; S. aureus DSMZ 1104; MH agar, 18 hours at 37° C.; per disk 10 μl crude extract, 50 μg macrolactin, 78 μg erythromycin, 30 μg vancomycin, 10 μg ampicillin
Method: as §2

[11] = system: MRSA 3 (methicillin-resistant S. aureus, clinical isolate); assay: agar diffusion method, inhibition zone; assay type: cell-based, Staphylococcus aureus; settings: Staphylococcus aureus; MRSA 3; MH agar, 18 hours at 37° C.; per disk 10 μl crude extract, 50 μg macrolactin, 78 μg erythromycin, 30 μg vancomycin, 10 μg ampicillin
Method: as §2

[12] = system: MRSA 2 (methicillin-resistant S. aureus, clinical isolate); assay: agar diffusion method, inhibition zone; assay type: cell-based, Staphylococcus aureus; settings: Staphylococcus aureus; MRSA 2; MH agar, 18 hours at 37° C.; per disk 10 μl crude extract, 50 μg macrolactin, 78 μg erythromycin, 30 μg vancomycin, 10 μg ampicillin
Method: as §2

With Gentamycin the “MIC (minimal inhibitory concentration)” value (E. faecium VRAR E315 [1]) was 64 µg/mL, the “MIC (minimal inhibitory concentration)” value (MRSA 3) was 128 µg/mL and the “MIC (minimal inhibitory concentration)” value (B. cepacia SCV 141 [2]) was over 128 µg/mL. For the same compound, the “MIC (minimal inhibitory concentration)” value (B. cepacia WT139) was over 128 µg/mL, the “MIC (minimal inhibitory concentration)” value (E. faecalis VRAS E305 [3]) was 64 µg/mL and the “MIC (minimal inhibitory concentration)” value (MRSA 2) was 128 µg/mL. For the same compound, the “MIC (minimal inhibitory concentration)” value [4] was 0.25 µg/mL and the “MIC (minimal inhibitory concentration)” value (E. faecalis ATCC 29212 [5]; E. faecalis ATCC 29212) was 32 µg/mL.
Compound `CC[C@H]1OC(=O)[C@H](C)[C@@H](O[C@H]2C[C@@](C)(OC)[C@@H](O)[C@H](C)O2)[C@H](C)[C@@H](O[C@@H]2O[C@H](C)C[C@H](N(C)C)[C@H]2O)[C@](C)(O)C[C@@H](C)C(=O)[C@H](C)[C@@H](O)[C@]1(C)O` [Erythromycin, erythromycin] has an MIC (E. faecium VRAR E315 [1]) of 2 µg/mL (≈ 2.73 µM), a zone of inhibition at 78 µg/disc (E. faecalis VRAS E305 [6]) of 0 mm and a zone of inhibition at 78 µg/disc (E. faecalis ATCC 29212 [7]) of 25 mm. For the same compound, the MIC (MRSA 3) was over 128 µg/mL, the zone of inhibition at 78 µg/disc (E. faecium VRAR E315 [8]) was 25 mm and the MIC (B. cepacia SCV 141 [2]) was 128 µg/mL (≈ 174 µM). It also gave an MIC (B. cepacia WT139) of over 128 µg/mL, an MIC (E. faecalis VRAS E305 [3]) of 128 µg/mL (≈ 174 µM) and an MIC (MRSA 2) of over 128 µg/mL. For the same compound, the MIC [4] was 0.06 µg/mL (≈ 0.0818 µM), the zone of inhibition at 78 µg/disc (B. cepacia SCV 141 [9]) was 0 mm and the zone of inhibition at 78 µg/disc [10] was 40 mm. It also gave a zone of inhibition at 78 µg/disc (S. aureus DSMZ 1104) of 30 mm, a zone of inhibition at 78 µg/disc [11] of 0 mm and a zone of inhibition at 78 µg/disc [12] of 0 mm. The MIC (E. faecalis ATCC 29212 [5]) was 2 µg/mL (≈ 2.73 µM).
In the case of `CC1(C)S[C@@H]2[C@H](NC(=O)[C@H](N)c3ccccc3)C(=O)N2[C@H]1C(=O)O` [Ampicillin, ampicillin], the MIC (E. faecium VRAR E315 [1]) was over 128 µg/mL, the zone of inhibition at 10 µg/disc (E. faecalis VRAS E305 [6]) was 35 mm and the zone of inhibition at 10 µg/disc (E. faecalis ATCC 29212 [7]) was 32 mm. For the same compound, the MIC (MRSA 3) was 64 µg/mL (≈ 183 µM), the zone of inhibition at 10 µg/disc (E. faecium VRAR E315 [8]) was 0 mm and the MIC (B. cepacia SCV 141 [2]) was 128 µg/mL (≈ 366 µM). It also gave an MIC (B. cepacia WT139) of over 128 µg/mL, an MIC (E. faecalis VRAS E305 [3]) of 0.5 µg/mL (≈ 1.43 µM) and an MIC (MRSA 2) of over 128 µg/mL. It also gave an MIC [4] of 0.06 µg/mL (≈ 0.172 µM), a zone of inhibition at 10 µg/disc (B. cepacia SCV 141 [9]) of 0 mm and a zone of inhibition at 10 µg/disc [10] of 41 mm. It also gave a zone of inhibition at 10 µg/disc (S. aureus DSMZ 1104) of 30 mm, a zone of inhibition at 10 µg/disc [11] of 0 mm and a zone of inhibition at 10 µg/disc [12] of 0 mm. The MIC (E. faecalis ATCC 29212 [5]) was 0.5 µg/mL (≈ 1.43 µM).
